Experimental data reported in patent publication US7495025B2, “Spiro-1,2,4-trioxanes” (Council of Scientific and Industrial Research, priority 2005, dated 2009).
Read-outs that look alike come from different tables or passages of the source.

Test system: multi-drug resistant strain of Plasmodium yoelii Nigeriensis
Test: Antimalarial activity against multi-drug resistant P. yoelii in Swiss mice (4-day treatment, observation till day 28)
Type: in vivo
Details: for inhibition in vivo at 24 mg/kg/day / inhibition in vivo at 48 mg/kg/day / responders at 24 mg/kg/day / responders at 48 mg/kg/day / inhibition in vivo at 96 mg/kg/day / responders at 96 mg/kg/day: Plasmodium yoelii; for inhibition in vivo at 24 mg/kg/day / inhibition in vivo at 48 mg/kg/day / inhibition in vivo at 96 mg/kg/day: 96 h, read-out: % Suppression on Day 4; for responders at 24 mg/kg/day / responders at 48 mg/kg/day / responders at 96 mg/kg/day: 672 h
Description: The antimalarial activity of the test compounds was evaluated in rodent using multi-drug resistant strain of Plasmodium yoelii Nigeriensis in Swiss mice.
Random bred Swiss mice of either sex (20±2 gm) were inoculated intraperitoneally with 1×10^5 P. yoelii (MDR) parasites on day zero. The treatments with test compounds were administered to group of 5 mice each at different dose levels ranging between 24-96 mg/kg/day. The treatment was administered in groundnut oil intramuscularly and orally for 4 consecutive days (day 0-3). Blood smears from experimental mice were observed on day 4 and 7, day 10 and thereafter at regular intervals till day 28 or death of the animal. The parasitaemia level on day 4 was compared with vehicle control group and the percent suppression of parasitaemia in treated groups were calculated.
The dose at which no parasitaemia develop during the observation period has been reported as the curative dose.

[1] = Swiss mice, 24 mg/kg/day, oral, in groundnut oil, days 0-3
[2] = Swiss mice, 48 mg/kg/day, oral, in groundnut oil, days 0-3
[3] = Swiss mice, 24 mg/kg/day, oral, in groundnut oil, days 0-3, read-out: Mice alive on day-28 (converted)
[4] = Swiss mice, 48 mg/kg/day, oral, in groundnut oil, days 0-3, read-out: Mice alive on day-28 (converted)
[5] = im, Swiss mice, 96 mg/kg/day, i.m., in groundnut oil, days 0-3
[6] = im, Swiss mice, 96 mg/kg/day, i.m., in groundnut oil, days 0-3, read-out: Mice alive on day-28 (converted)
[7] = Swiss mice, 96 mg/kg/day, i.m., in groundnut oil, days 0-3
[8] = im, Swiss mice, 48 mg/kg/day, i.m., in groundnut oil, days 0-3
[9] = im, Swiss mice, 48 mg/kg/day, i.m., in groundnut oil, days 0-3, read-out: Mice alive on day-28 (converted)
[10] = Swiss mice, 96 mg/kg/day, oral, in groundnut oil, days 0-3
[11] = Swiss mice, 96 mg/kg/day, oral, in groundnut oil, days 0-3, read-out: Mice alive on day-28 (converted)
[12] = po, read-out: Mice alive on day-28

Structure (SMILES): C=C(c1ccc2ccccc2c1)C1COC2(CCC(=CC(=O)OCC)CC2)OO1 (centres unmarked) [Compound 4ah, [3-(1-Naphthalen-2-yl-vinyl)-1,2,5-trioxa-spiro[5.5]undec-9-ylidene]-acetic acid ethyl ester]
- inhibition in vivo at 24 mg/kg/day [1]: 100%
- inhibition in vivo at 48 mg/kg/day [2]: 100%
- responders at 24 mg/kg/day [3]: 20%
- responders at 48 mg/kg/day [4]: 100%
- inhibition in vivo at 96 mg/kg/day [5]: 88%
- responders at 96 mg/kg/day [6]: 40%

Structure (SMILES): C=C(c1ccc(-c2ccccc2)cc1)C1COC2(CCC(=O)CC2)OO1 (centres unmarked) [Compound 3b, 3-(1-Biphenyl-4yl-vinyl)-1,2,5-trioxaspiro[5.5]undec-9-one]
- % Suppression on Day 4 [7]: 100%
- Mice alive on day-28 [7]: 1/5

Structure (SMILES): C=C(c1ccc(C)cc1)C1COC2(CCC(=CC(=O)OCC)CC2)OO1 (centres unmarked) [Compound 4ae, [3-(1-p-Tolyl-vinyl)-1,2,5-trioxa-spiro[5.5]undec-9-ylidene]-acetic acid ethyl ester]
- inhibition in vivo at 24 mg/kg/day [1]: 100%
- inhibition in vivo at 48 mg/kg/day [2]: 100%
- responders at 24 mg/kg/day [3]: 60%
- responders at 48 mg/kg/day [4]: 100%
- inhibition in vivo at 48 mg/kg/day [8]: 100%
- inhibition in vivo at 96 mg/kg/day [5]: 100%
- responders at 48 mg/kg/day [9]: 40%
- responders at 96 mg/kg/day [6]: 100%

Structure (SMILES): C=C(c1ccc(-c2ccccc2)cc1)C1COC2(CCC(=CC(=O)OCC)CC2)OO1 (centres unmarked) [Compound 4ab, [3-(1-Biphenyl-4-yl-vinyl)-1,2,5-trioxa-spiro[5.5]undec-9-ylidene]-acetic acid ethyl ester]
- inhibition in vivo at 96 mg/kg/day [10]: 100%
- responders at 96 mg/kg/day [11]: 100%

Structure (SMILES): C=C(c1ccc(Cl)cc1)C1COC2(CCC(=CC(=O)OCC)CC2)OO1 (centres unmarked) [Compound 4ac, {3-[1-(4-Chloro-phenyl)-vinyl]-1,2,5-trioxa-spiro[5.5]undec-9-ylidene}-acetic acid ethyl ester]
- inhibition in vivo at 24 mg/kg/day [1]: 100%
- inhibition in vivo at 48 mg/kg/day [2]: 100%
- responders at 24 mg/kg/day [3]: 60%
- responders at 48 mg/kg/day [4]: 100%
- inhibition in vivo at 48 mg/kg/day [8]: 100%
- inhibition in vivo at 96 mg/kg/day [5]: 100%
- responders at 48 mg/kg/day [9]: 60%
- responders at 96 mg/kg/day [6]: 100%

Structure (SMILES): C=C(c1ccc(OC)cc1)C1COC2(CCC(=CC(=O)OCC)CC2)OO1 (centres unmarked) [Compound 4ad, {3-[1-(4-Methoxy-phenyl)-vinyl]-1,2,5-trioxa-spiro[5.5]undec-9-ylidene}-acetic acid ethyl ester]
- inhibition in vivo at 96 mg/kg/day [10]: 100%
- responders at 96 mg/kg/day [11]: 100%
- inhibition in vivo at 96 mg/kg/day [5]: 100%
- responders at 96 mg/kg/day [6]: 40%

Structure (SMILES): C=C(c1ccccc1)C1COC2(CCC(=CC(=O)OCC)CC2)OO1 (centres unmarked) [Compound 4aa, [3-(1-Phenyl-vinyl)-1,2,5-trioxa-spiro[5.5]undec-9-ylidene]-acetic acid ethyl ester]
- inhibition in vivo at 48 mg/kg/day [2]: 100%
- responders at 48 mg/kg/day [4]: 100%
- inhibition in vivo at 96 mg/kg/day [5]: 99%
- responders at 96 mg/kg/day [6]: 40%

Structure (SMILES): C=C(c1ccc(Cl)cc1)C1COC2(CCC(=O)CC2)OO1 (centres unmarked) [Compound 3c, 3-[1-(4-Chloro-phenyl)-vinyl]-1,2,5-trioxa-spiro[5.5]undecan-9-one]
- inhibition in vivo at 96 mg/kg/day [10]: 100%
- responders at 96 mg/kg/day [11]: 0%

Structure (SMILES): C=C(c1cccc2ccccc12)C1COC2(CCC(=CC(=O)OCC)CC2)OO1 (centres unmarked) [Compound 4ag, [3-(1-Naphthalen-1-yl-vinyl)-1,2,5-trioxa-spiro[5.5]undec-9-ylidene]-acetic acid ethyl ester]
- inhibition in vivo at 96 mg/kg/day [5]: 100%
- responders at 96 mg/kg/day [6]: 100%

Structure (SMILES): C=C(c1ccc(C2CCCCC2)cc1)C1COC2(CCC(=C(C)C(=O)OCC)CC2)OO1 (centres unmarked) [Compound 4bf, 2-{3-[1-(4-Cyclohexyl-phenyl)-vinyl]-1,2,5-trioxa-spiro[5.5]undec-9-ylidene}-propionic acid ethyl ester]
- inhibition in vivo at 96 mg/kg/day [10]: 100%
- responders at 96 mg/kg/day [11]: 40%

Structure (SMILES): C=C(c1ccccc1)C1COC2(CCC(=O)CC2)OO1 (centres unmarked) [Compound 3a, 3-(1-Phenyl-vinyl)-1,2,5-trioxaspiro[5.5]undec-9-one]
- % Suppression on Day 4 [7]: 99%
- Mice alive on day-28 [7]: 0/5

Structure (SMILES): C=C(c1ccc(C2CCCCC2)cc1)C1COC2(CCC(=CC(=O)OCC)CC2)OO1 (centres unmarked) [Compound 4af, {3-[1-(4-Cyclohexyl-phenyl)-vinyl]-1,2,5-trioxa-spiro[5.5]undec-9-ylidene}-acetic acid ethyl ester]
- inhibition in vivo at 48 mg/kg/day [2]: 100%
- inhibition in vivo at 96 mg/kg/day [10]: 100%
- responders at 48 mg/kg/day [4]: 60%
- responders at 96 mg/kg/day [11]: 80%

Structure (SMILES): CCN(CC)CCCC(C)Nc1ccnc2cc(Cl)ccc12 (centres unmarked) [Chloroquine, reference compound]
- inhibition in vivo at 24 mg/kg/day (po): 100%
- inhibition in vivo at 48 mg/kg/day (po): 100%
- responders at 24 mg/kg/day [12]: 0%
- responders at 48 mg/kg/day [12]: 40%

Structure (SMILES): C=C(c1cccc2ccccc12)C1COC2(CCC(=O)CC2)OO1 (centres unmarked) [Compound 3g, 3-(1-Naphthalen-1-yl-vinyl)-1,2,5-trioxa-spiro [5.5]undecan-9-one]
- inhibition in vivo at 96 mg/kg/day [10]: 100%
- responders at 96 mg/kg/day [11]: 20%

Structure (SMILES): CCO[C@H]1O[C@@H]2O[C@@]3(C)CC[C@H]4[C@H](C)CC[C@@H]([C@H]1C)[C@@]24OO3 [β-Arteether, reference compound]
- % Suppression on Day 4 [1]: 100%
- Mice alive on day-28 [1]: 1/5
- % Suppression on Day 4 [2]: 100%
- Mice alive on day-28 [2]: 5/5

Structure (SMILES): C=C(c1ccc(-c2ccccc2)cc1)C1COC2(CCC(=C(C)C(=O)OCC)CC2)OO1 (centres unmarked) [Compound 4bb, 2-[3-(1-Biphenyl-4-yl-vinyl)-1,2,5-trioxa-spiro [5.5]undec-9-ylidene]-propionic acid ethyl ester]
- inhibition in vivo at 96 mg/kg/day [10]: 100%
- responders at 96 mg/kg/day [11]: 60%

Structure (SMILES): C=C(c1ccc(C2CCCCC2)cc1)C1COC2(CCC(=O)CC2)OO1 (centres unmarked) [Compound 3f, 3-[1-(4-Cyclohexyl-phenyl)-vinyl]-1,2,5-trioxa-spiro[5.5]undecan-9-one]
- inhibition in vivo at 96 mg/kg/day [10]: 100%
- responders at 96 mg/kg/day [11]: 60%
- inhibition in vivo at 96 mg/kg/day [5]: 100%
- responders at 96 mg/kg/day [6]: 40%
